Measurements from patent US20220194938A1, “NOVEL COMPOUNDS AND PHARMACEUTICAL COMPOSITIONS THEREOF FOR THE TREATMENT OF INFLAMMATORY DISORDERS” (GALAPAGOS NV, priority 2019, published 2022).
pIC50: −log10 of the molar value.

Assays:
human IRAK-4 = molecular target: T1, human IRAK-4 (Homo sapiens, UniProt Q9NWZ3); assay: Phosphorylation IC50 determination for human IRAK-4 (ADP-Glo kinase assay); conditions: human IRAK-4, RIP140 substrate, Km ATP; read-out: IRAK4 ADPglo biochemical assay IC50
T1 construct: purchased Carna Biosciences 09 145
T1 sequence (Q9NWZ3 1-460): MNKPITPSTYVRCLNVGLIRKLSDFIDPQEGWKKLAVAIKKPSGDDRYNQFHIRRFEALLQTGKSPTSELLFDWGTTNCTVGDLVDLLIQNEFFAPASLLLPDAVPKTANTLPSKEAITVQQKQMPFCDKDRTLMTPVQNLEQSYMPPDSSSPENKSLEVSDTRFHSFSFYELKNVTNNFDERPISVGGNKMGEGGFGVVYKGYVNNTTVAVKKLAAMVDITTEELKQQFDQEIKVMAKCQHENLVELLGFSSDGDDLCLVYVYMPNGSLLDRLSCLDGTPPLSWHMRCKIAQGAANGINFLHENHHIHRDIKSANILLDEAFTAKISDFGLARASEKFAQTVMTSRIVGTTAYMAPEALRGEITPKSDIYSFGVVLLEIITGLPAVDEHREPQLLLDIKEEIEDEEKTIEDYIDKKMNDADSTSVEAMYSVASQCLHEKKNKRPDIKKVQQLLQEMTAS
Experimental: 3.1. Phosphorylation IC50 Determination for Human IRAK-4
The phosphorylation of the substrate RIP140 (SEQ ID1) by IRAK4 at Km ATP was detected with the ADP-Glo Kinase Assay (Promega, Cat #V9103), a luminescent kinase assay which measures the ADP formed from a kinase reaction. (Zegzouti et al. 2009) In a second step the kinase reaction was terminated and all the remaining ATP was depleted. In a final step the ADP was converted into ATP and this newly synthesized ATP was measured by using a luciferase/luciferin reaction with a luminescent reader. The luminescent signal positively correlated with kinase activity, in particular kinase inhibition giving a decrease of the luminescent signal.
For the semi-automated assay, the positive control (100% inhibition) was prepared by diluting 10 mM staurosporine stock mixture (20 μL) in water (3.8 mL) and DMSO (180 μL), thus resulting in a […] staurosporine solution at 1% DMSO (final concentration after further dilution in the kinase reaction).
For the automated assay, no pre-dilution of the 10 mM staurosporine stock was made. 10 mM staurosporine was spotted directly in the assay plate using acoustic dispensing and complemented with DMSO to result in a similar final concentration as mentioned above.
For the semi-automated assay, the negative control (0% inhibition) was prepared by mixing water (3.8 mL) and DMSO (200 μL) resulting in a final concentration of 1% DMSO after further dilution in the kinase reaction. For the automated assay no pre-dilution of DMSO was done. 100% DMSO was spotted directly on the assay plate.
The assay buffer solution was prepared at a concentration corresponding to 5 fold the final (most diluted) assay concentration by mixing a solution of 125 mM TRIS pH 7.5+0.05% Triton X-100+2.5 mM EGTA (5.27 mL) with 1M mgCl2 (72 μL), 1M DTT (57.6 μL), and 200 mM MnCl2 (360 μL).
For example, for the semi-automated method, the enzyme-substrate mixture was prepared by mixing water (3999 μL), assay buffer solution (1380 μL), 1 mM RIP140 (138 μL—SEQ ID1), and 200 ng/mL IRAK 4 (3.45 μL Carna Biosciences, 09 145).
For semi-automated method, the ATP mixture was prepared at a concentration corresponding to 2.5 fold the final (most diluted) assay concentration of the semi-automated method and 1.5 fold the final (most diluted) assay concentration of the automated method. For example, for the semi-automated method, the ATP mixture was prepared by mixing water (4126 μL), assay buffer solution (1380 μL), and 10 mM ATP (13.80 μL).
The assay was performed either in a semi-automated or fully automated manner. The assay volume and the incubation time of the ADP detection were different accordingly the method used.
3.1.3.1. Semi-Automated Assay
The compounds were prepared as a serial dilution of 10 point dose responses with 1/5 dilution steps in 100% DMSO starting from 2 mM highest concentration, diluted 1/20 in water. 1 μL was transferred dry to the assay plates.
On each assay plate 32 wells of each control (positive & negative) were added, followed by 2 μL enzyme-substrate mixture.
The reaction was started by adding 2 μL diluted ATP (final concentration Km ATP) on the assay plates. Plates were centrifuged for a few seconds at 1000 rpm followed by an incubation at r.t. for 120 min.
The reactions were stopped and the unconsumed ATP was depleted by adding 5 μL ADP-glo Reagent (Promega, Cat #V9103) to the reaction. The plates were quickly centrifuged at 1000 rpm and incubated at r.t. for 40 min corresponding to full ATP depletion.
The ADP was converted back to ATP and luciferase and luciferin were introduced to detect ATP by adding 10 μL kinase detection reagent (Promega, Cat #V9103) to the reaction. The plates were centrifuged for a few seconds at 1000 rpm and incubated at r.t. for a further 30 min.
Luminescent read out was performed on an Envision luminescent reader (Perkin Elmer). […]

[1] = system: pooled cryopreserved hepatocytes; assay: Metabolic stability in hepatocytes (mouse); type: in vitro ADME; conditions: 1 μM test compound
Experimental: (§1) 4.6. Metabolic Stability in Hepatocytes
(§2) The aim of this assay is to determine the metabolic stability of the compound in hepatocytes (cryopreserved) of different species. Low hepatocyte stability may result in the formation of unwanted metabolites, high clearance, and therefore is not desirable.
(§3) The decrease in parent was assessed by measuring the percentage remaining by LC-MS/MS analysis.
(§4) A 10 mM stock solution of test compound in DMSO was first diluted in DMSO to 3 mM, and then in modified Krebs-Henseleit buffer (Sigma, K3753) to 5 μM. This compound dilution was added to a suspension of pooled cryopreserved hepatocytes (BioreclamationIVT) at 37° C. under gentle shaking.
(§5) Final reaction conditions were: 1 μM of test compound, 0.03% DMSO, 0.5 million viable hepatocytes/mL, and 75 μL incubation volume.
(§6) Testosterone (1 μM) and 7-hydroxycoumarin (1 μM) were used, respectively as phase I and phase II metabolic reaction controls.
(§7) After 0, 10, 20, 45, 90, 120 and 180 min of incubation, the reaction was terminated with 225 μL of MeCN:MeOH (2:1) containing 100 ng/mL of diclofenac as analytical internal standard. Samples were mixed, centrifuged and the supernatant analyzed by LC-MS/MS.
(§8) The instrument responses (ratios of test compound and internal standard peak areas) were referenced to the zero time point samples (considered as 100%) in order to determine the percentage of compound remaining.
(§9) Plots of percentage compound remaining are used to determine the intrinsic clearance in the hepatocyte incubations using the following equations:
(§10) Scaled Clint[L/h/kg]=Clint[μL/min/10^6 cells]*#(10^6) cells/g liver*60*(1/10^6) Scaled Clint unbound [L/h/kg]=Clint [L/h/kg]/Fu,inc where: fu,inc equals hepatocyte binding, derived from microsomal binding (fu,mic) by following equation: […]

[2] = system: pooled cryopreserved hepatocytes; assay: Metabolic stability in hepatocytes (human); type: in vitro ADME; conditions: 1 μM test compound
Experimental: as §1, §2, §3, §4, §5, §6, §7, §8, §9, §10

Structure (SMILES) | pIC50 (human IRAK-4) | Mouse (Perc. remaining at 90 min) [1] [%] | Human (Perc. remaining at 90 min) [2] [%]
COc1cc2nc(CCC(C)(C)O)cn2cc1NC(=O)c1cccn(C(C)C)c1=O [Compound 22, N-[2-(3-hydroxy-3-methyl-butyl)-7-methoxy-imidazo[1,2-a]pyridin-6-yl]-1-isopropyl-2-oxo-pyridine-3-carboxamide] | 7.30 to 8.00 | 74.1 | 99.75
CN(C)C(=O)c1cc2nc(CCC(C)(C)O)cn2cc1NC(=O)c1cccc(C(F)(F)F)n1 [Compound 27, 2-(3-hydroxy-3-methyl-butyl)-N,N-dimethyl-6-[[6-(trifluoromethyl)pyridine-2-carbonyl]amino]imidazo[1,2-a]pyridine-7-carboxamide] | 7.30 to 8.00 | 108.1 | 95.6
CC(C)(O)CCc1cn2cc(NC(=O)c3cccc(C(F)(F)F)n3)c(C(=O)N3CCC3)cc2n1 [Compound 28, N-[7-(azetidine-1-carbonyl)-2-(3-hydroxy-3-methyl-butyl)imidazo[1,2-a]pyridin-6-yl]-6-(trifluoromethyl)pyridine-2-carboxamide] | 7.30 to 8.00 | 96.25 | 93.5
CCOc1cc2nc(CCC(C)(C)O)cn2cc1NC(=O)c1cccn(C)c1=O [Compound 29, N-[7-ethoxy-2-(3-hydroxy-3-methyl-butyl)imidazo[1,2-a]pyridin-6-yl]-1-methyl-2-oxo-pyridine-3-carboxamide] | 7.30 to 8.00 | 95.2 | 98.85
COc1cc2nc(CCC(C)(C)O)cn2cc1NC(=O)c1cccc(Cl)n1 [Compound 34, 6-chloro-N-[2-(3-hydroxy-3-methylbutyl)-7-methoxyimidazo[1,2-a]pyridin-6-yl]pyridine-2-carboxamide] | 8.00 to 8.30 | 6.59 | 49.8
CC(C)(O)CCc1cn2cc(NC(=O)c3cccc(C(F)(F)F)n3)c(C(=O)NCCO)cc2n1 [Compound 40, 2-(3-hydroxy-3-methylbutyl)-N-(2-hydroxyethyl)-6-(6-(trifluoromethyl)picolinamido)imidazo[1,2-a]pyridine-7-carboxamide] | 8.30 to 10.00 | 94.55 | 94.65
